These results are taken from patent US6476034B2, “Antiviral azaindole derivatives” (priority 2000, dated 2002).

The assay relates to single-round infectious HIV-1 reporter virus. The assay is described as follows: microbe, parasite or virus in culture. It is filed as cell-based. The following applies: for EC50: Human immunodeficiency virus 1, HeLa-CD4/CCR5; for inhibition at 10 µM: Human immunodeficiency virus 1, HeLa-CD4/CCR5, 72 h, read-out: Average % inhibition at or <10 μM; for Average % inhibition at or <10 μM: HeLa CD4 CCR5 cells, luciferase expression 3 days (72 hours) after infection, compounds tested below 10 μM: % inhibition at 10 μM extrapolated with XLfit, mean of at least two experiments.

Take `Cc1ccnc2c(C(=O)C(=O)N3CCN(C(=O)c4ccccc4)C[C@H]3C)c[nH]c12` [Compound 5x, (R)-N-(benzoyl)-3-Methyl-N′-[(7-Methyl-4-azaindol-3-yl)-oxoacetyl]-piperazine]: the half-maximal effective concentration (EC50) is under 1 µM and the inhibition at 10 µM came to 99%.
For `C[C@@H]1CN(C(=O)c2ccccc2)CCN1C(=O)C(=O)c1c[nH]c2c1c([N+](=O)[O-])cc[n+]2[O-]` [Compound 15a, (R)-N-(benzoyl)-3-methyl-N′-[(4-nitro-7-oxide-7-azaindol-3-yl)-oxoacetyl]-piperazine], the “Average % inhibition at or <10 μM” value was 70%.
Regarding `CC1CN(C(=O)C(=O)c2c[nH]c3ncccc23)CCN1C(=O)c1ccccc1` (stereo not drawn) [Compound 5e, N-(benzoyl)-2-methyl-N′-[(7-azaindol-3-yl)-oxoacetyl]-piperazine], the EC50 was under 1 µM and the inhibition at 10 µM came out at 80%.
In the same order, the values of `C[C@@H]1CN(C(=O)c2ccccc2)CCN1C(=O)C(=O)c1c[nH]c2nccc([N+](=O)[O-])c12` [Compound 18a, (R)-N-(benzoyl)-3-methyl-N′-[(4-nitro-7-azaindol-3-yl)-oxoacetyl]-piperazine] are 1 to 5 µM and 80%.
As to “N-(pyridin-2-yl)-N′-[(7-azaindol-3-yl)-oxoacetyl]-piperazine [Compound 5j]”, the “Average % inhibition at or <10 μM” value is listed as 90%.
Turning to `COc1ncc(OC)c2c(C(=O)C(=O)N3CCN(C(=O)c4ccccc4)C[C@H]3C)c[nH]c12` [Compound 5ap, ®-N-(benzoyl)-3-methyl-N′-[(4,7-dimethoxy-6-azaindol-3-yl)-oxoacetyl]piperazine], the concentration giving a half-maximal response (EC50) was under 1 µM.
`COc1ncc(OC)c2c(C(=O)C(=O)N3CCN(C(=O)c4ccccc4)CC3)c[nH]c12` [Compound 5ao, N-(benzoyl)-N′-[(4,7-dimethoxy-6-azaindol-3-yl)-oxoacetyl]piperazine] returned an EC50 of under 1 µM.
`C[C@@H]1CN(C(=O)c2ccccc2)CCN1C(=O)C(=O)c1c[nH]c2nccc(Cl)c12` [Compound 9a, (R)-N-(benzoyl)-3-methyl-N′-[(4-chloro-7-azaindol-3-yl)-oxoacetyl]-piperazine]: the EC50 was under 1 µM and the inhibition at 10 µM is over 99%.
In the same order, the values of `O=C(C(=O)N1CCN(C(=O)c2ccccc2)CC1)c1c[nH]c2cnccc12` [Compound 5p, N-(benzoyl)-N′-[(6-azaindol-3-yl)-oxoacetyl]-piperazine] are over 0.5 µM and 40%.
In the same order, the values of `CC1CN(C(=O)c2ccccc2)CCN1C(=O)C(=O)c1c[nH]c2cnccc12` (stereo not drawn) [Compound 5q, N-(benzoyl)-3-Methyl-N′[(6-azaindol-3-yl)-oxoacetyl]-piperazine] are under 1 µM and 97%.
For the molecule `O=C(C(=O)N1CCN(C(=O)c2ccccc2)CC1)c1c[nH]c2c(Cl)nccc12` [Compound 5t, N-(benzoyl)-N′-[(7-Chloro-6-azaindol-3-yl)-oxoacetyl]-piperazine], the EC50 is under 1 µM and the inhibition at 10 µM was over 99%.
In the same order, the values of `C[C@@H]1CN(C(=O)c2ccccc2)CCN1C(=O)C(=O)c1c[nH]c2cnccc12` [Compound 5r, (R)-N-(benzoyl)-3-Methyl-N′-[(6-azaindol-3-yl)-oxoacetyl]-piperazine] are under 1 µM and over 99%.
In the same order, the values of `CCC1CN(C(=O)c2ccccc2)CCN1C(=O)C(=O)c1c[nH]c2ncccc12` (stereo not drawn) [Compound 5g, N-(benzoyl)-3-ethyl-N′-[(7-azaindol-3-yl)-oxoacetyl]-piperazine] are under 1 µM and 70%.
Regarding `C[C@@H]1CN(C(=O)c2ccccc2)CCN1C(=O)C(=O)c1cn(C)c2ncccc12` [Compound 21a, (R)-N-(benzoyl)-3-methyl-N′-[(1-methyl-7-azaindol-3-yl)-oxoacetyl]-piperazine], the EC50 was under 1 µM and the inhibition at 10 µM was 70%.
In the same order, the values of `C[C@@H]1CN(C(=O)c2ccccc2)[C@@H](C)CN1C(=O)C(=O)c1c[nH]c2ncccc12` (relative stereo) [Compound 5i, trans-N-(benzoyl)-2,5-dimethyl-N′-[(7-azaindol-3-yl)-oxoacetyl]-piperazine] are under 1 µM and 89%.
In the same order, the values of `CC(=O)Oc1ccc2c(C(=O)C(=O)N3CCN(C(=O)c4ccccc4)C[C@H]3C)cn(C(C)=O)c2n1` [Compound 13a, (R)-N-(benzoyl)-3-methyl-N′-[(1-acetyl-6-acetoxy-7-azaindol-3-yl)-oxoacetyl]-piperazine] are under 1 µM and over 99%.
For the molecule `CC1(C)CN(C(=O)c2ccccc2)CCN1C(=O)C(=O)c1c[nH]c2ncccc12` [Compound 5h, N-(benzoyl)-3,3-dimethyl-N′-[(7-azaindol-3-yl)-oxoacetyl]-piperazine], the EC50 was 1 to 5 µM and the inhibition at 10 µM came out at 80%.
In the same order, the values of `CCC1CN(C(=O)c2c[nH]c3ncccc23)CCN1C(=O)c1ccccc1` (stereo not drawn) [Compound 5c, N-(benzoyl)-2-ethyl-N′-[(7-azaindol-3-yl)-carbonyl]-piperazine] are under 1 µM and 80%.
Regarding `C[C@H]1CN(C(=O)c2ccccc2)CCN1C(=O)C(=O)c1c[nH]c2cnccc12` [Compound 5s, (S)-N-(benzoyl)-3-Methyl-N′-[(6-azaindol-3-yl)-oxoacetyl]-piperazine], the EC50 was over 0.5 µM and the inhibition at 10 µM stood at 56%.
In the same order, the values of `CCC1CN(C(=O)C(=O)c2c[nH]c3ncccc23)CCN1C(=O)c1ccccc1` (stereo not drawn) [Compound 5b, N-(benzoyl)-2-ethyl-N′-[(7-azaindol-3-yl)-oxoacetyl]-piperazine] are under 1 µM and 90%.
For `C[C@@H]1CN(C(=O)c2ccccc2)CCN1C(=O)C(=O)c1c[nH]c2ccncc12` [Compound 5m, (R)-N-(benzoyl)-3-methyl-N′-[(5-azaindol-3-yl)-oxoacetyl]-piperazine], the EC50 was over 0.5 µM and the inhibition at 10 µM was 60%.
Regarding `C[C@@H]1CN(C(=O)c2ccccc2)CCN1C(=O)C(=O)c1c[nH]c2ncccc12` [Compound 5a, (R)-N-(benzoyl)-3-methyl-N′-[(7-azaindol-3-yl)-oxoacetyl]-piperazine], the EC50 is under 1 µM and the inhibition at 10 µM was over 99%.
In the same order, the values of `C[C@@H]1CN(C(=O)c2ccccc2)CCN1C(=O)C(=O)c1c[nH]c2nc(Cl)ccc12` [Compound 9b, (R)-N-(benzoyl)-3-methyl-N′-[(6-chloro-7-azaindol-3-yl)-oxoacetyl]-piperazine] are under 1 µM and over 99%.
In the same order, the values of `C[C@@H]1CN(C(=O)c2ccccc2)CCN1C(=O)C(=O)c1c[nH]c2nc(C#N)ccc12` [Compound 12a, (R)-N-(benzoyl)-3-methyl-N′-[(6-cyano-7-azaindol-3-yl)-oxoacetyl]-piperazine] are under 1 µM and over 99%.
In the same order, the values of `COc1ccnc2[nH]cc(C(=O)C(=O)N3CCN(C(=O)c4ccccc4)C[C@H]3C)c12` [Compound 17a, (R)-N-(benzoyl)-3-methyl-N′-[(4-methoxy-7-azaindol-3-yl)-oxoacetyl]-piperazine] are under 1 µM and over 99%.
For the molecule `COc1nccc2c(C(=O)C(=O)N3CCN(C(=O)c4ccccc4)C[C@H]3C)c[nH]c12` [Compound 5v, (R)-N-(benzoyl)-3-Methyl-N′-[(7-Methoxy-6-azaindol-3-yl)-oxoacetyl]-piperazine], the EC50 was under 1 µM and the inhibition at 10 µM is over 99%.
For `COc1cc[n+]([O-])c2[nH]cc(C(=O)C(=O)N3CCN(C(=O)c4ccccc4)C[C@H]3C)c12` [Compound 16a, (R)-N-(benzoyl)-3-methyl-N′-[(4-methoxy-7-oxide-7-azaindol-3-yl)-oxoacetyl]-piperazine], the “Average % inhibition at or <10 μM” value was over 99%.
Turning to `CC1CN(C(=O)c2ccccc2)CCN1C(=O)C(=O)c1c[nH]c2ncccc12` (stereo not drawn) [Compound 5ai, N-(benzoyl)-3-methyl-N′-[(7-azaindol-3-yl)-oxoacetyl]-piperazine], the 50% effective concentration (EC50) is under 1 µM.
Take `C[C@@H]1CN(C(=O)c2ccccc2)CCN1C(=O)C(=O)c1c[nH]c2c(Cl)ccnc12` [Compound 5y, (R)-N-(benzoyl)-3-Methyl-N′-[(7-Chloro-4-azaindol-3-yl)-oxoacetyl]-piperazine]: the half-maximal effective concentration (EC50) was under 1 µM and the inhibition at 10 µM is over 99%.
In the same order, the values of `C[C@@H]1CN(C(=O)c2ccccc2)CCN1C(=O)C(=O)c1c[nH]c2nccc(NO)c12` [Compound 19a, (R)-N-(benzoyl)-3-methyl-N′-[(4-hydroxylamino-7-azaindol-3-yl)-oxoacetyl]-piperazine] are under 1 µM and 98%.
In the same order, the values of `COc1ccnc2[nH]cc(C(=O)C(=O)N3CCN(C(=O)c4ccccc4)C[C@@H]3C)c12` [Compound 17d, (S)-N-(benzoyl)-3-methyl-N′-[(4-methoxy-7-azaindol-3-yl)-oxoacetyl]-piperazine] are under 1 µM and 98%.
Take `CCCSc1cc[n+]([O-])c2[nH]cc(C(=O)C(=O)N3CCN(C(=O)c4ccccc4)C[C@H]3C)c12` [Compound 16e, (R)-N-(benzoyl)-3-methyl-N′-[(4-propylthio-7-oxide-7-azaindol-3-yl)-oxoacetyl]-piperazine]: the “Average % inhibition at or <10 μM” value is recorded as 50%.
The molecule `CC(C)C1CN(C(=O)C(=O)c2c[nH]c3ncccc23)CCN1C(=O)c1ccccc1` (stereo not drawn) [Compound 5ac, N-(benzoyl)-2-iso-Propyl-N′-[(7-azaindol-3-yl)-oxoacetyl]-piperazine] showed an EC50 of over 0.4 µM.
With `COc1ccnc2[nH]cc(C(=O)C(=O)N3CCN(C(=O)c4ccccc4)CC3C)c12` (stereo not drawn) [Compound 17e, N-(benzoyl)-3-methyl-N′-[(4-methoxy-7-azaindol-3-yl)-oxoacetyl]-piperazine], the concentration giving a half-maximal response (EC50) is under 1 µM and the inhibition at 10 µM stood at 94%.

Usually EC50 stands for the concentration giving half of the maximal effect. Low values mean greater potency, high ones weaker potency. By inhibition is commonly meant the drop in the measured response relative to a control, in per cent.
